From patent publication US20240317708A1, “INHIBITORS OF TRANSGLUTAMINASES” (ZEDIRA GMBH, priority 2021, published 2024)

Columns and labels:
[1] = target: T1, recombinant human transglutaminase 2 (Homo sapiens, UniProt P21980); assay: Transglutaminase assay (dansylcadaverine incorporation into dimethylcasein, DCC-assay); format: biochemical; conditions: recombinant human TG2 10 nM, dansylcadaverine/dimethylcasein, 37° C.
T1 construct: purchased Zedira T022
T1 sequence (P21980 1-687): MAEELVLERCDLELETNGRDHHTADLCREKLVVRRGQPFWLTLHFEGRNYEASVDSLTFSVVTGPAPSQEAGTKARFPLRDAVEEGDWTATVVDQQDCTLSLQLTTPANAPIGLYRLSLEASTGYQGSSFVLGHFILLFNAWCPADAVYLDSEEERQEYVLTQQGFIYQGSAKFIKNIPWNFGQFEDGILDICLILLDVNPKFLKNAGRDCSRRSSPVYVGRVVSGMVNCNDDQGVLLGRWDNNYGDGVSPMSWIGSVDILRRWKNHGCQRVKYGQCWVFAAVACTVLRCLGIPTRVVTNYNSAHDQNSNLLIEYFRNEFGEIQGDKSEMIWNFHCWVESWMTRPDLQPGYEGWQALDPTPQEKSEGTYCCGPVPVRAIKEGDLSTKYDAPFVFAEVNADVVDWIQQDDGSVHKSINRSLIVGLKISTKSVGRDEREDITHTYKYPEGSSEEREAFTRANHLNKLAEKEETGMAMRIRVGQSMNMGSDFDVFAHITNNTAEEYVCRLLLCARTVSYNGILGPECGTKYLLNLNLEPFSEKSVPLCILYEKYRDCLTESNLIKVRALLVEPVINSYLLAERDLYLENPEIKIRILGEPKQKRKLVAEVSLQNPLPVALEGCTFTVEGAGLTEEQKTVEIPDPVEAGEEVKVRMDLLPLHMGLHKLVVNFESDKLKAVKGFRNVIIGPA
In short: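 IC50 derived from fluorescence slope between 20 and 30 min (λex 330 nm, λem 500 nm, 37 °C), expressed relative to a 2% DMSO control. Reaction: 10 nM recombinant human TG2, 4 μM dimethylcasein, 16.7 μM dansylcadaverine, 10 mM CaCl2 and glutathione, pH 8.0.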

[2] = Log D shake flask method (octanol / PBS pH 7.4, HPLC); format: physicochemical; conditions: octanol/phosphate-buffered saline (PBS); octanol / PBS pH 7.4, shake flask
Procedure: In order to classify the inventive compounds according to their lipophilicity, Log D values (distribution coefficient) were determined by means of the well-established shake flask method, measuring the partition of a compound between an octanol and phosphate-buffered saline (PBS, pH 7.4) by HPLC.

[3] = Caco-2 permeability assay (CacoReady kit); format: in vitro ADME; conditions: human
In short: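 Compounds are tested on pre-formed Caco-2 barriers supplied as a ready-to-use kit, following the kit protocol, and the Papp value is derived to estimate intestinal absorption.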

Row | IC50 [1] [nM] | logD [2] | Papp [3] [×10⁻⁶ cm/s] | SMILES
1 | 25 to 250 | < 1 | < 1 | COC(=O)/C=C/CC[C@H](NC(=O)c1csnn1)C(=O)Nc1cccn(CC(=O)NC23CC(C2)C3)c1=O [III-169, (S,E)-methyl 7-(1-(2-(bicyclo[1.1.1]pentan-1-ylamino)-2-oxoethyl)-2-oxo-1,2-dihydropyridin-3-ylamino)-7-oxo-6-(1,2,3-thiadiazole-4-carboxamido)hept-2-enoate]
2 | 25 to 250 | 3 to 5 | < 1 | CCOC(=O)/C=C/CC[C@H](NC(=O)c1cncn1C)C(=O)Nc1cccn(CC(=O)NC2C3CC4CC(C3)CC2C4)c1=O (stereo partly drawn) [III-99, (S,E)-ethyl 7-(1-(2-(2-adamantylamino)-2-oxoethyl)-2-oxo-1,2-dihydropyridin-3-ylamino)-6-(1-methyl-1H-imidazole-5-carboxamido)-7-oxohept-2-enoate]
3 | 250 to 1500 | < 1 | < 1 | COC(=O)/C=C/CC[C@H](NC(=O)c1nc(C2(C)CC2)no1)C(=O)Nc1cccn(CC(=O)NC2C3CC4CC2CC(C(N)=O)(C4)C3)c1=O (stereo partly drawn) [III-167, (S,E)-methyl 7-(1-(2-(4-aminoadamantane-1-carboxamide)-2-oxoethyl)-2-oxo-1,2-dihydropyridin-3-ylamino)-6-(3-(1-methylcyclopropyl)-1,2,4-oxadiazole-5-carboxamido)-7-oxohept-2-enoate]
4 | 250 to 1500 | 3 to 5 | < 1 | COC(=O)/C=C/CC[C@H](NC(=O)c1ncc(OC)o1)C(=O)Nc1cccn(CCC(=O)NC2C3CC4CC(C3)CC2C4)c1=O (stereo partly drawn) [III-133, (S,E)-methyl 7-(1-(3-(2-adamantylamino)-3-oxopropyl)-2-oxo-1,2-dihydropyridin-3-ylamino)-6-(5-methoxyoxazole-2-carboxamido)-7-oxohept-2-enoate]
5 | < 25 | 3 to 5 | 1 to 10 | COC(=O)/C=C/CC[C@H](NC(=O)c1cc(Br)c(Br)s1)C(=O)Nc1cccn(CC(=O)NC2C3CC4CC(C3)CC2C4)c1=O (stereo partly drawn) [III-19, (S,E)-methyl 6-(4,5-dibromothiophene-2-carboxamido)-7-(1-(2-(2-adamantylamino)-2-oxoethyl)-2-oxo-1,2-dihydropyridin-3-ylamino)-7-oxohept-2-enoate]
6 | < 25 | 3 to 5 | 1 to 10 | COC(=O)/C=C/CC[C@H](NC(=O)c1oc2ccccc2c1C)C(=O)Nc1cccn(CC(=O)NC2C3CC4CC2CC(Br)(C4)C3)c1=O (stereo partly drawn) [III-41, (S,E)-methyl 7-(1-(2-(5-bromoadamantan-2-amino)-2-oxoethyl)-2-oxo-1,2-dihydropyridin-3-ylamino)-6-(3-methylbenzofuran-2-carboxamido)-7-oxohept-2-enoate]
7 | < 25 | 1 to 3 | < 1 | COC(=O)/C=C/CC[C@H](NC(=O)c1snnc1C)C(=O)Nc1cccn(CC(=O)N[C@@H]2C[C@H]3CC[C@@H]2C3)c1=O [III-110, (S,E)-methyl 7-(1-(2-((1R,2R,4S)-bicyclo[2.2.1]heptan-2-ylamino)-2-oxoethyl)-2-oxo-1,2-dihydropyridin-3-ylamino)-6-(4-methyl-1,2,3-thiadiazole-5-carboxamido)-7-oxohept-2-enoate]
8 | 25 to 250 | 1 to 3 | < 1 | COC(=O)/C=C/CC[C@H](NC(=O)c1nc[nH]n1)C(=O)Nc1cccn(CC(=O)NC2C3CC4CC(C3)CC2C4)c1=O (stereo partly drawn) [III-104, (S,E)-methyl 7-(1-(2-(2-adamantylamino)-2-oxoethyl)-2-oxo-1,2-dihydropyridin-3-ylamino)-7-oxo-6-(1H-1,2,4-triazole-3-carboxamido)hept-2-enoate]
9 | < 25 | 3 to 5 | 1 to 10 | COC(=O)/C=C/CC[C@H](NC(=O)c1cc2c(Br)cccc2o1)C(=O)Nc1cccn(CC(=O)NC2C3CC4CC(C3)CC2C4)c1=O (stereo partly drawn) [III-4, (S,E)-methyl 6-(4-bromobenzofuran-2-carboxamido)-7-(1-(2-(2-adamantylamino)-2-oxoethyl)-2-oxo-1,2-dihydropyridin-3-ylamino)-7-oxohept-2-enoate]
10 | 250 to 1500 | < 1 | < 1 | COC(=O)/C=C/CC[C@H](NC(=O)c1coc(S(N)(=O)=O)c1)C(=O)Nc1cccn(CC(=O)NC2C3CC4CC2CC(NC(C)=O)(C4)C3)c1=O (stereo partly drawn) [III-164, (S,E)-methyl 7-(1-(2-(1-acetylamino-4-aminoadamantane)-2-oxoethyl)-2-oxo-1,2-dihydropyridin-3-ylamino)-7-oxo-6-(5-sulfamoylfuran-3-carboxamido)hept-2-enoate]

The remaining lines, values behind:

Row | SMILES | IC50 [1] [nM] | logD [2] | Papp [3] [×10⁻⁶ cm/s]
11 | COC(=O)/C=C/CC[C@H](NC(=O)c1oc2ccccc2c1C)C(=O)Nc1cccn(CC(=O)NCC23CC4CC(CC(C4)C2)C3)c1=O [III-56, (S,E)-methyl 7-(1-(2-(1-adamantylmethylamino)-2-oxoethyl)-2-oxo-1,2-dihydropyridin-3-ylamino)-6-(3-methylbenzofuran-2-carboxamido)-7-oxohept-2-enoate] | 25 to 250 | 3 to 5 | 1 to 10
12 | COC(=O)/C=C/CC[C@H](NC(=O)c1cc(Cl)sc1Cl)C(=O)Nc1cccn(CC(=O)N[C@H]2C[C@H]3CC[C@]2(C)C3(C)C)c1=O [III-128, (S,E)-methyl 6-(2,5-dichlorothiophene-3-carboxamido)-7-oxo-7-(2-oxo-1-(2-oxo-2-((1R,2S,4R)-1,7,7-trimethylbicyclo[2.2.1]heptan-2-ylamino)ethyl)-1,2-dihydropyridin-3-ylamino)hept-2-enoate] | < 25 | 3 to 5 | 1 to 10
13 | COC(=O)/C=C/CC[C@H](NC(=O)c1oc2ccccc2c1C)C(=O)Nc1cccn(CC(=O)NC2(C(=O)OC)C3CC4CC(C3)CC2C4)c1=O (stereo partly drawn) [III-44, (S,E)-methyl 7-(1-(2-(2-methyladamantane-2-carboxylate-2-amino)-2-oxoethyl)-2-oxo-1,2-dihydropyridin-3-ylamino)-6-(3-methylbenzofuran-2-carboxamido)-7-oxohept-2-enoate] | 25 to 250 | 3 to 5 | < 1
14 | COC(=O)/C=C/CC[C@H](NC(=O)c1oc2ccccc2c1C)C(=O)Nc1cccn(CC(=O)N[C@H]2C[C@H]3CC[C@]2(C)C3(C)C)c1=O [III-61, (S,E)-methyl 6-(3-methylbenzofuran-2-carboxamido)-7-oxo-7-(2-oxo-1-(2-oxo-2-((1R,2S,4R)-1,7,7-trimethylbicyclo[2.2.1]heptan-2-ylamino)ethyl)-1,2-dihydropyridin-3-ylamino)hept-2-enoate] | 25 to 250 | 3 to 5 | 1 to 10
15 | O=C(/C=C/CC[C@H](NC(=O)c1ccc2c(c1)NCCC2)C(=O)Nc1cccn(CC(=O)NC23CC(C2)C3)c1=O)NC1CCCCC1 [III-149, (S,E)-N7-(1-(2-(bicyclo[1.1.1]pentan-1-ylamino)-2-oxoethyl)-2-oxo-1,2-dihydropyridin-3-yl)-N1-cyclohexyl-6-(1,2,3,4-tetrahydroquinoline-7-carboxamido)hept-2-enediamide] | 250 to 1500 | 1 to 3 | < 1
16 | COC(=O)/C=C/CC[C@H](NC(=O)c1oc2ccccc2c1C)C(=O)Nc1cccn(CC(=O)NC2CC3CCC2CC3)c1=O (stereo partly drawn) [III-67, (6S,E)-methyl 7-(1-(2-(bicyclo[2.2.2]octan-2-ylamino)-2-oxoethyl)-2-oxo-1,2-dihydropyridin-3-ylamino)-6-(3-methylbenzofuran-2-carboxamido)-7-oxohept-2-enoate] | < 25 | 3 to 5 | 1 to 10
17 | COC(=O)/C=C/CC[C@H](NC(=O)c1oc2ccccc2c1C)C(=O)Nc1cccn(CC23CC4CC(CC(O)(C4)C2)C3)c1=O [III-80, (6S,E)-methyl 7-(1-((3-hydroxy-1-adamantyl)methyl)-2-oxo-1,2-dihydropyridin-3-ylamino)-6-(3-methylbenzofuran-2-carboxamido)-7-oxohept-2-enoate] | 250 to 1500 | 1 to 3 | < 1
18 | COC(=O)/C=C/CC[C@H](NC(=O)c1cncn1C)C(=O)Nc1cccn(CC(=O)NC23CC4(C)CC(C)(CC(C)(C4)C2)C3)c1=O [III-91, (S,E)-methyl 7-(1-(2-(3,5,7-trimethyl-1-adamantylamino)-2-oxoethyl)-2-oxo-1,2-dihydropyridin-3-ylamino)-6-(1-methyl-1H-imidazole-5-carboxamido)-7-oxohept-2-enoate] | < 25 | 3 to 5 | 1 to 10
